The results in this text go back to PubChem BioAssay AID328 (DTP/NCI, 2004).

The structures appear in SMILES notation. Several values for one entry are separate records, joined by “and”; a condition that tells them apart may be missing. Equal entries are not always repeated. Toxic doses and inconclusive results are not listed.

The test deals with BDF1 mice, P388 leukemia ip, median survival T/C. Nature of the test: NCI In Vivo Anticancer Drug Screen. Data for tumor model P388 Leukemia (intraperitoneal) in B6D2F1 (BDF1) mice. Particulars: endpoint: median survival time, higher = longer survival. In short, it runs like this: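 In tumour-bearing mice, survival after compound treatment is set against the vehicle group and given as a quotient.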

Where [1] appears, read: dose: 100.0 mg/kg/injection, schedule: Q04DX003 (ip), vehicle: Klucel (hydroxypropylcellulose) (HPC).
[2] abbreviates: dose: 200.0 mg/kg/injection, schedule: Q04DX003 (ip), vehicle: Klucel (hydroxypropylcellulose) (HPC).
The mark [3] stands for this setting: dose: 400.0 mg/kg/injection, schedule: Q04DX003 (ip), vehicle: Klucel (hydroxypropylcellulose) (HPC).
[4] abbreviates: dose: 50.0 mg/kg/injection, schedule: Q01DX009 (ip), vehicle: saline with Tween-80.
The mark [5] stands for this setting: dose: 100.0 mg/kg/injection, schedule: Q01DX009 (ip), vehicle: saline with Tween-80.
[6] abbreviates: dose: 50.0 mg/kg/injection, schedule: Q04DX003 (ip), vehicle: saline.
The mark [7] stands for this setting: dose: 100.0 mg/kg/injection, schedule: Q04DX003 (ip), vehicle: saline.
[8] abbreviates: dose: 200.0 mg/kg/injection, schedule: Q01DX009 (ip), vehicle: saline with Tween-80.
The mark [9] stands for this setting: dose: 400.0 mg/kg/injection, schedule: Q01DX009 (ip), vehicle: saline with Tween-80.
[10] abbreviates: dose: 25.0 mg/kg/injection, schedule: Q04DX003 (ip), vehicle: saline.
[11] abbreviates: dose: 100.0 mg/kg/injection, schedule: Q04DX003 (ip), vehicle: saline sonified.
[12] abbreviates: dose: 200.0 mg/kg/injection, schedule: Q04DX003 (ip), vehicle: saline sonified.
Setting [13] is: dose: 25.0 mg/kg/injection, schedule: Q01DX009 (ip), vehicle: saline.
Where [14] appears, read: dose: 50.0 mg/kg/injection, schedule: Q01DX009 (ip), vehicle: saline.
The mark [15] stands for this setting: dose: 100.0 mg/kg/injection, schedule: Q01DX009 (ip), vehicle: saline.

In the case of `NC1C(O)C(O)C(Nc2ncnc3nc[nH]c23)OC1C(O)CO` (stereo not drawn), the T/C runs as follows: (dose: 1.5 mg/kg/injection, schedule: Q01DX010 (ip), vehicle: saline) 105 % of control; (dose: 3.0 mg/kg/injection, schedule: Q01DX010 (ip), vehicle: saline) 105 % of control; (dose: 6.0 mg/kg/injection, schedule: Q01DX010 (ip), vehicle: saline) 100 % of control; (dose: 12.0 mg/kg/injection, schedule: Q01DX010 (ip), vehicle: saline) 95 % of control; (dose: 24.0 mg/kg/injection, schedule: Q01DX010 (ip), vehicle: saline) 110 % of control; (dose: 48.0 mg/kg/injection, schedule: Q01DX010 (ip), vehicle: saline) 105 % of control.
With `O=[N+]([O-])c1ccccc1NC1c2ccccc2Oc2ccccc21`, the T/C reads like this: under setting [1], 116 % of control; under setting [2], 122 % of control; under setting [3], 122 % of control.
As for `O=C(O)CNC(=O)CNC(=O)C(Br)Cc1ccccc1` (stereo not drawn), the T/C (dose: 25.0 mg/kg/injection, schedule: Q01DX009 (ip), vehicle: saline with Tween-80) is 95 % of control; the T/C (dose: 25.0 mg/kg/injection, schedule: Q04DX003 (ip), vehicle: Klucel (hydroxypropylcellulose) (HPC)) was 104 % of control; the T/C under setting [4] is 87 % of control; the T/C (dose: 50.0 mg/kg/injection, schedule: Q04DX003 (ip), vehicle: Klucel (hydroxypropylcellulose) (HPC)) is 104 % of control; the T/C under setting [5] was 100 % of control; the T/C under setting [1] is 91 % of control and 100 % of control.
In the case of `OCC1(O)CC(O)C(O)(CO)CC1O` (stereo not drawn), the T/C by setting is: (dose: 50.0 mg/kg/injection, schedule: Q01DX009 (ip), vehicle: other) 104 % of control; under setting [6], 104 % of control; (dose: 100.0 mg/kg/injection, schedule: Q01DX009 (ip), vehicle: other) 95 % of control; under setting [7], 116 % of control; (dose: 200.0 mg/kg/injection, schedule: Q01DX009 (ip), vehicle: other) 118 % of control; (dose: 200.0 mg/kg/injection, schedule: Q04DX003 (ip), vehicle: saline) 95 % of control.
With `COc1cc2c(c(OC)c1OC)CCc1cnoc1-2`, the T/C is 107 % of control under setting [4], 95 % of control under setting [5], 97 % of control under setting [8] and 92 % of control under setting [9].
Consider `CNC(=O)c1ccccc1C(O)(c1ccccc1)c1ccccc1`, for which the T/C under setting [1] was 113 % of control, the T/C under setting [2] is 109 % of control and the T/C under setting [3] is 100 % of control.
For the compound `C[n+]1csc(=S)[nH]1`, the T/C reads like this: under setting [10], 86 % of control; under setting [6], 95 % of control; under setting [7], 100 % of control.
For `C/C=C1/CC(C)C(C)(O)C(=O)OCC2CCN3CCC(OC1=O)C23` (stereo not drawn), the T/C runs as follows: (dose: 25.0 mg/kg/injection, schedule: Q01DX010 (ip), vehicle: saline) 111 % of control; (dose: 50.0 mg/kg/injection, schedule: Q01DX010 (ip), vehicle: saline) 116 % of control; (dose: 100.0 mg/kg/injection, schedule: Q01DX010 (ip), vehicle: saline) 116 % of control.
Take `CCCCCCCCCCCCCCCC[N+]1(CC)CCCC1`: the T/C reads like this: (dose: 0.19 mg/kg/injection, schedule: Q01DX009 (ip), vehicle: saline) 120 % of control; (dose: 0.39 mg/kg/injection, schedule: Q01DX009 (ip), vehicle: saline) 104 % of control.
As for `CCN(CC)C(=O)c1ccc(C(Cl)(Cl)Cl)cc1`, the T/C reads like this: (dose: 12.5 mg/kg/injection, schedule: Q01DX009 (ip), vehicle: saline with Tween-80) 102 % of control; under setting [4], 100 % of control and 109 % of control and 120 % of control; under setting [5], 100 % of control (2×) and 104 % of control; under setting [1], 100 % of control; (dose: 176.0 mg/kg/injection, schedule: Q04DX003 (ip), vehicle: saline sonified) 104 % of control; under setting [8], 112 % of control. Also, the T/C runs as follows: under setting [2], 95 % of control; (dose: 264.0 mg/kg/injection, schedule: Q04DX003 (ip), vehicle: saline sonified) 104 % of control; under setting [9], 109 % of control.
`CCCCCC[P+](c1ccccc1)(c1ccccc1)c1ccccc1`: the T/C is 114 % of control (dose: 6.25 mg/kg/injection, schedule: Q01DX009 (ip), vehicle: saline); 109 % of control (dose: 6.25 mg/kg/injection, schedule: Q04DX003 (ip), vehicle: saline); 92 % of control (dose: 12.5 mg/kg/injection, schedule: Q01DX009 (ip), vehicle: saline); 104 % of control (dose: 12.5 mg/kg/injection, schedule: Q04DX003 (ip), vehicle: saline).
As for `CN1C(=O)C(Br)=C(c2cccs2)C1=O`, the T/C runs as follows: (dose: 25.0 mg/kg/injection, schedule: Q01DX001 (ip), vehicle: saline with Tween-80) 109 % of control; (dose: 50.0 mg/kg/injection, schedule: Q01DX001 (ip), vehicle: saline with Tween-80) 103 % of control.
On to `Cc1ccc(Nc2nc(N)nc(CNc3ccc(Cl)cc3)n2)cc1`, for which the T/C by setting is: under setting [11], 110 % of control; under setting [12], 100 % of control; (dose: 400.0 mg/kg/injection, schedule: Q04DX003 (ip), vehicle: saline sonified) 100 % of control.
Regarding `CC(=O)Nc1cc(F)c([N+](=O)[O-])cc1[N+](=O)[O-]`, the T/C was 115 % of control (dose: 0.62 mg/kg/injection, schedule: Q01DX009 (ip), vehicle: saline); 100 % of control (dose: 1.25 mg/kg/injection, schedule: Q01DX009 (ip), vehicle: saline); 105 % of control (dose: 2.5 mg/kg/injection, schedule: Q01DX009 (ip), vehicle: Klucel (hydroxypropylcellulose) (HPC)); 300 % of control and 100 % of control (dose: 2.5 mg/kg/injection, schedule: Q01DX009 (ip), vehicle: saline); 115 % of control (dose: 5.0 mg/kg/injection, schedule: Q01DX009 (ip), vehicle: Klucel (hydroxypropylcellulose) (HPC)); 300 % of control and 110 % of control (dose: 5.0 mg/kg/injection, schedule: Q01DX009 (ip), vehicle: saline). Besides, the T/C (dose: 10.0 mg/kg/injection, schedule: Q01DX009 (ip), vehicle: Klucel (hydroxypropylcellulose) (HPC)) is 100 % of control; the T/C (dose: 10.0 mg/kg/injection, schedule: Q01DX009 (ip), vehicle: saline) is 300 % of control and 105 % of control; the T/C (dose: 20.0 mg/kg/injection, schedule: Q01DX009 (ip), vehicle: Klucel (hydroxypropylcellulose) (HPC)) was 110 % of control; the T/C (dose: 20.0 mg/kg/injection, schedule: Q01DX009 (ip), vehicle: saline) is 95 % of control.
As to `CN1CCCCCC1`, the T/C (dose: 150.0 mg/kg/injection, schedule: Q01DX009 (ip), vehicle: saline) was 95 % of control; the T/C (dose: 225.0 mg/kg/injection, schedule: Q01DX009 (ip), vehicle: saline) is 104 % of control; the T/C (dose: 335.0 mg/kg/injection, schedule: Q01DX009 (ip), vehicle: saline) is 86 % of control.
`OCC(F)(F)C(F)(F)C(F)(F)F`: the T/C is 100 % of control under setting [5], 104 % of control under setting [8] and 109 % of control under setting [9].
In the case of `COc1ccc(C(C)(C#N)Nc2ccccc2)cc1` (stereo not drawn), the T/C is, setting by setting: (dose: 50.0 mg/kg/injection, schedule: Q04DX003 (ip), vehicle: saline sonified) 100 % of control; under setting [11], 100 % of control; under setting [12], 100 % of control.
As for `NC(=O)/C=C/C(=O)O`, the T/C was 101 % of control under setting [13]; 93 % of control under setting [14]; 103 % of control under setting [15]; 101 % of control (dose: 200.0 mg/kg/injection, schedule: Q01DX009 (ip), vehicle: saline).
Regarding `C[C@]12CCC(=O)C[C@@H]1CC[C@@H]1[C@@H]2CC[C@]2(C)[C@@H](OC(=O)N(CCCl)N=O)CC[C@@H]12`, under setting [15], the T/C was 100 % of control.
In the case of `COc1cc(/C=N/NC(=O)C[n+]2ccccc2)cc(OC)c1`, the T/C runs as follows: under setting [13], 104 % of control; under setting [10], 109 % of control; under setting [14], 100 % of control; under setting [6], 104 % of control; under setting [7], 86 % of control.
